The values below come from PubChem BioAssay AID256 (DTP/NCI, 2004).

Where “and” joins values, the source holds several entries; their conditions need not be identical. Equal entries are not always repeated. Toxic doses and inconclusive results are not listed.

The test has as its system CD2F1 mice, L1210 leukemia ip, survival T/C. Briefly: NCI In Vivo Anticancer Drug Screen. Data for tumor model L1210 Leukemia (intraperitoneal) in CD2F1 (CDF1) mice. The settings on record: higher = longer survival. The gist of the method:
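Transplantable tumor in mice; compound-treated vs vehicle-treated groups. Read-out = treated/control ratio of the measured endpoint.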

The mark [1] stands for this setting: endpoint: mean survival time, dose: 100.0 mg/kg/injection, schedule: Q01DX009 (ip), vehicle: saline with Tween-80.
[2] abbreviates: endpoint: mean survival time, dose: 200.0 mg/kg/injection, schedule: Q01DX009 (ip), vehicle: saline with Tween-80.
The mark [3] stands for this setting: endpoint: mean survival time, dose: 400.0 mg/kg/injection, schedule: Q01DX009 (ip), vehicle: saline with Tween-80.
[4] abbreviates: endpoint: mean survival time, dose: 100.0 mg/kg/injection, schedule: Q04DX003 (ip), vehicle: saline with Tween-80.
[5] abbreviates: endpoint: mean survival time, dose: 200.0 mg/kg/injection, schedule: Q04DX003 (ip), vehicle: saline with Tween-80.
The mark [6] stands for this setting: endpoint: mean survival time, dose: 400.0 mg/kg/injection, schedule: Q04DX003 (ip), vehicle: saline with Tween-80.
[7] abbreviates: endpoint: mean survival time, dose: 100.0 mg/kg/injection, schedule: Q04DX003 (ip), vehicle: saline.
The mark [8] stands for this setting: endpoint: mean survival time, dose: 200.0 mg/kg/injection, schedule: Q04DX003 (ip), vehicle: saline.
[9] abbreviates: endpoint: mean survival time, dose: 400.0 mg/kg/injection, schedule: Q04DX003 (ip), vehicle: saline.

As to `CCCCC(=O)OCC(=O)[C@]1(O)Cc2c(O)c3c(c(O)c2[C@@H](OC2CC(NC(=O)C(F)(F)F)C(O)C(C)O2)C1)C(=O)c1c(OC)cccc1C3=O` (stereo partly specified), the T/C (endpoint: mean survival time, dose: 4.0 mg/kg/injection, schedule: Q01DX009 (ip), vehicle: Klucel (hydroxypropylcellulose) (HPC)) was 113 % of control; the T/C (endpoint: mean survival time, dose: 4.0 mg/kg/injection, schedule: Q01DX009 (ip), vehicle: water) is 97 % of control; the T/C (endpoint: mean survival time, dose: 8.0 mg/kg/injection, schedule: Q01DX009 (ip), vehicle: Klucel (hydroxypropylcellulose) (HPC)) was 118 % of control; the T/C (endpoint: mean survival time, dose: 8.0 mg/kg/injection, schedule: Q01DX009 (ip), vehicle: water) is 101 % of control; the T/C (endpoint: mean survival time, dose: 16.0 mg/kg/injection, schedule: Q01DX009 (ip), vehicle: water) is 106 % of control; the T/C (endpoint: mean survival time, dose: 32.0 mg/kg/injection, schedule: Q01DX009 (ip), vehicle: Klucel (hydroxypropylcellulose) (HPC)) is 150 % of control. Further, the T/C reads like this: (endpoint: mean survival time, dose: 32.0 mg/kg/injection, schedule: Q01DX009 (ip), vehicle: water) 111 % of control; (endpoint: mean survival time, dose: 64.0 mg/kg/injection, schedule: Q01DX009 (ip), vehicle: Klucel (hydroxypropylcellulose) (HPC)) 167 % of control; (endpoint: mean survival time, dose: 64.0 mg/kg/injection, schedule: Q01DX009 (ip), vehicle: water) 113 % of control; (endpoint: mean survival time, dose: 128.0 mg/kg/injection, schedule: Q01DX009 (ip), vehicle: Klucel (hydroxypropylcellulose) (HPC)) 250 % of control; (endpoint: median survival time, dose: 13.0 mg/kg/injection, schedule: Q10HX004 (ip), vehicle: other) 100 % of control; (endpoint: median survival time, dose: 21.6 mg/kg/injection, schedule: Q10HX004 (ip), vehicle: other) 102 % of control. Also, the T/C (endpoint: median survival time, dose: 36.0 mg/kg/injection, schedule: Q10HX004 (ip), vehicle: other) was 114 % of control; the T/C (endpoint: median survival time, dose: 60.0 mg/kg/injection, schedule: Q10HX004 (ip), vehicle: other) was 118 % of control; the T/C (endpoint: median survival time, dose: 100.0 mg/kg/injection, schedule: Q10HX004 (ip), vehicle: other) was 153 % of control.
Take `CCCCCc1ccc(C(C)=O)cc1`: the T/C is 103 % of control under setting [1], 103 % of control under setting [2] and 88 % of control under setting [3].
As for `COc1ccc2ccccc2c1C(=O)CCCc1ccccc1`, the T/C is, setting by setting: (endpoint: mean survival time, dose: 12.5 mg/kg/injection, schedule: Q01DX009 (ip), vehicle: water) 97 % of control; (endpoint: mean survival time, dose: 25.0 mg/kg/injection, schedule: Q01DX009 (ip), vehicle: water) 96 % of control; (endpoint: mean survival time, dose: 50.0 mg/kg/injection, schedule: Q01DX009 (ip), vehicle: water) 97 % of control; (endpoint: mean survival time, dose: 100.0 mg/kg/injection, schedule: Q01DX009 (ip), vehicle: water) 96 % of control; (endpoint: mean survival time, dose: 200.0 mg/kg/injection, schedule: Q01DX009 (ip), vehicle: water) 96 % of control.
`CC(=O)OC1CCC2(C)C(CCC3C4CC=C(C(C)=O)C4(C)CCC32)C1` (stereo unspecified): the T/C runs as follows: under setting [1], 92 % of control; under setting [2], 92 % of control; under setting [3], 89 % of control.
Consider `Cc1cc(NCCN(C(C)C)C(C)C)nc(Nc2nc3ccc(Cl)cc3[nH]2)n1`, for which the T/C (endpoint: mean survival time, dose: 0.75 mg/kg/injection, schedule: Q01DX009 (ip), vehicle: saline with Tween-80) is 103 % of control; the T/C (endpoint: mean survival time, dose: 1.5 mg/kg/injection, schedule: Q01DX009 (ip), vehicle: saline with Tween-80) was 90 % of control; the T/C (endpoint: mean survival time, dose: 3.0 mg/kg/injection, schedule: Q01DX009 (ip), vehicle: saline with Tween-80) was 106 % of control; the T/C (endpoint: mean survival time, dose: 6.25 mg/kg/injection, schedule: Q01DX009 (ip), vehicle: saline with Tween-80) was 92 % of control; the T/C (endpoint: mean survival time, dose: 12.5 mg/kg/injection, schedule: Q01DX009 (ip), vehicle: saline with Tween-80) was 92 % of control; the T/C (endpoint: mean survival time, dose: 100.0 mg/kg/injection, schedule: Q01DX001 (ip), vehicle: saline with Tween-80) is 96 % of control. The T/C is, setting by setting: (endpoint: mean survival time, dose: 200.0 mg/kg/injection, schedule: Q01DX001 (ip), vehicle: saline with Tween-80) 96 % of control; (endpoint: mean survival time, dose: 400.0 mg/kg/injection, schedule: Q01DX001 (ip), vehicle: saline with Tween-80) 98 % of control.
For `COC(=O)NC(=O)c1cn[nH]n1`, the T/C (endpoint: mean survival time, dose: 12.5 mg/kg/injection, schedule: Q01DX009 (ip), vehicle: other) is 98 % of control; the T/C (endpoint: mean survival time, dose: 25.0 mg/kg/injection, schedule: Q01DX009 (ip), vehicle: other) is 103 % of control; the T/C (endpoint: mean survival time, dose: 50.0 mg/kg/injection, schedule: Q01DX009 (ip), vehicle: other) was 97 % of control; the T/C (endpoint: mean survival time, dose: 100.0 mg/kg/injection, schedule: Q01DX009 (ip), vehicle: other) was 101 % of control; the T/C (endpoint: mean survival time, dose: 200.0 mg/kg/injection, schedule: Q01DX009 (ip), vehicle: other) is 95 % of control.
Take `CCOC(=O)C(CCP(=O)(OCC)OCC)NC(=O)c1ccc(N(C)Cc2cnc3nc(N)nc(N)c3n2)cc1` (stereo unspecified): the T/C is, setting by setting: (endpoint: median survival time, dose: 0.38 mg/kg/injection, schedule: Q01DX009 (ip), vehicle: saline) 101 % of control; (endpoint: median survival time, dose: 0.75 mg/kg/injection, schedule: Q01DX009 (ip), vehicle: saline) 102 % of control; (endpoint: median survival time, dose: 1.5 mg/kg/injection, schedule: Q01DX009 (ip), vehicle: saline) 102 % of control; (endpoint: median survival time, dose: 3.0 mg/kg/injection, schedule: Q01DX009 (ip), vehicle: saline) 102 % of control; (endpoint: median survival time, dose: 6.0 mg/kg/injection, schedule: Q01DX009 (ip), vehicle: saline) 101 % of control; (endpoint: median survival time, dose: 12.0 mg/kg/injection, schedule: Q01DX009 (ip), vehicle: saline) 102 % of control.
Take `CCn1c(-c2cccc(N)c2)cc(=O)n1-c1ccccc1`: the T/C runs as follows: under setting [4], 98 % of control; under setting [5], 96 % of control; under setting [6], 90 % of control.
With `CC1(CCO)NC(=O)NC1=O` (stereo unspecified), the T/C was 97 % of control (endpoint: mean survival time, dose: 100.0 mg/kg/injection, schedule: Q01DX009 (ip), vehicle: saline sonified); 100 % of control under setting [7]; 97 % of control (endpoint: mean survival time, dose: 200.0 mg/kg/injection, schedule: Q01DX009 (ip), vehicle: saline sonified); 96 % of control under setting [8]; 97 % of control (endpoint: mean survival time, dose: 400.0 mg/kg/injection, schedule: Q01DX009 (ip), vehicle: saline sonified); 100 % of control under setting [9].
As for `CCN1CCN(CC)C1c1ccccc1`, the T/C runs as follows: under setting [1], 103 % of control; under setting [2], 98 % of control.
Turning to `CC1(C)CC(O)CC(C)(C)N1O`, the T/C (endpoint: mean survival time, dose: 50.0 mg/kg/injection, schedule: Q01DX009 (ip), vehicle: saline with Tween-80) was 102 % of control; the T/C under setting [1] was 103 % of control; the T/C under setting [7] was 97 % of control; the T/C under setting [2] is 96 % of control; the T/C under setting [8] is 94 % of control; the T/C under setting [9] was 97 % of control.
As for `COc1ccc(S(=O)[O-])cc1.C[c-]1[c-][c-][c-][c-]1.[C-]#[O+].[C-]#[O+].[Fe+6]`, the T/C was 95 % of control (endpoint: mean survival time, dose: 6.25 mg/kg/injection, schedule: Q04DX002 (ip), vehicle: other); 114 % of control (endpoint: mean survival time, dose: 12.5 mg/kg/injection, schedule: Q04DX002 (ip), vehicle: other); 100 % of control (endpoint: mean survival time, dose: 25.0 mg/kg/injection, schedule: Q04DX002 (ip), vehicle: other).
Consider `Fc1c(F)c(F)c(OP2(Oc3c(F)c(F)c(F)c(F)c3F)=NP(Oc3c(F)c(F)c(F)c(F)c3F)(Oc3c(F)c(F)c(F)c(F)c3F)=NP(Oc3c(F)c(F)c(F)c(F)c3F)(Oc3c(F)c(F)c(F)c(F)c3F)=N2)c(F)c1F`, for which the T/C under setting [1] is 103 % of control; the T/C under setting [4] is 98 % of control; the T/C under setting [2] is 101 % of control; the T/C under setting [5] is 95 % of control; the T/C under setting [3] is 95 % of control; the T/C under setting [6] was 98 % of control.
For `CN(N=O)C(=O)Nc1ccc(C2CC(=O)N(C)C2=O)cc1` (stereo unspecified), the T/C (endpoint: mean survival time, dose: 12.5 mg/kg/injection, schedule: Q01DX001 (ip), vehicle: distilled water + Tween-80) was 113 % of control; the T/C (endpoint: mean survival time, dose: 25.0 mg/kg/injection, schedule: Q01DX001 (ip), vehicle: distilled water + Tween-80) is 101 % of control and 106 % of control; the T/C (endpoint: mean survival time, dose: 50.0 mg/kg/injection, schedule: Q01DX001 (ip), vehicle: distilled water + Tween-80) was 108 % of control and 112 % of control; the T/C (endpoint: mean survival time, dose: 100.0 mg/kg/injection, schedule: Q01DX001 (ip), vehicle: distilled water + Tween-80) is 113 % of control; the T/C (endpoint: mean survival time, dose: 200.0 mg/kg/injection, schedule: Q01DX001 (ip), vehicle: distilled water + Tween-80) was 112 % of control.
